Measurements as given in US12161741B2, “Skin gel preparation for external use” (Shiseido Company, Ltd., priority 2018, dated 2024).

Assay: Solubility of the di-chain cationic surfactant (distearyldimonium chloride) in oils
Settings: for Dissolution of the di-chain cationic surfactant in the oil (text summary of Table 1): 1 g in 100 g oil, 24 hours at ambient temperature; for Evaluation Result (state of the solution of distearyldimonium chloride in the oil): 1 g distearyldimonium chloride mixed and heated to dissolve in 100 g of oil, at rest 24 hours at ambient temperature

Molecule | Dissolution of the di-chain cationic surfactant in the oil (text summary of Table 1) | Evaluation Result (state of the solution of distearyldimonium chloride in the oil)
CCCCCCCCCCC(CO)CCCCCCCC (centres unmarked) [Octyldodecanol] | homogeneously dissolved | –
CCCCC(CC)COCC(O)CO (centres unmarked) [Ethylhexylglycerin] | homogeneously dissolved | ○
CC(C)CCCCCCCCCCCCCCCO [Isostearyl alcohol] | homogeneously dissolved | –
CC(C)CCCCCCCCCCCCCCCOC(=O)CC(O)C(=O)OCCCCCCCCCCCCCCCC(C)C (centres unmarked) [Diisostearyl malate] | homogeneously dissolved | ○
Glyceryl diisostearate | homogeneously dissolved | ○
